Assay results as given in ChEMBL document CHEMBL1131759, “A mutational study of a Diels-Alderase catalytic antibody” (Bioorg Med Chem Lett, 1999).

Experiments:
Type in all cases: ADME
[1] = Kinetic constant for the Val91Tyr (39-A11)
[2] = Kinetic constant for the 39-A11 antibody
[3] = Kinetic constant for the SerL91Val (germline)
[4] = Kinetic constant for the germline antibody

| Km [1] [µM] | Km [2] [µM] | Km [3] [µM] | Km [4] [µM] | SMILES |
| --- | --- | --- | --- | --- |
| 420 | 740 | 740 | 450 | CC(=O)Nc1ccc(N2C(=O)C=CC2=O)cc1 |
| 2100 | 1200 | 1200 | 1400 | C=C/C=C/NC(=O)OCC(=O)O |
